Experimental data as given in the supplement of paper PMC10307832.

Tests used:
Assay in all cases: relative viability (nuclei count vs DMSO), 5 days (fraction); higher = more cells survive
XMD13-2 + Lapatinib = compound: C1CC1C(=O)NC2=NNC3=C2C=CC(=C3)C4=CC(=CC=C4)C(=O)NC5CC5 [XMD13-2] + CS(=O)(=O)CCNCc1ccc(-c2ccc3ncnc(Nc4ccc(OCc5cccc(F)c5)c(Cl)c4)c3c2)o1 [Lapatinib] (partner 2 µM)
In short: (§1)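 Relative viability equals treated-well nuclei counts divided by vehicle-well nuclei counts. Counts came from 4× images of lung cancer cell lines grown in 1536-well plates for 5 days after pin-tool dosing on the day after seeding. Dosing used one drug alone or a fixed anchor-drug dose plus five library-drug doses (not always all listed) in √10 steps, and values are medians of duplicate plates.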

ALW-II-49-7 + Alpelisib = compound: Cc1ccc(C(=O)Nc2cccc(C(F)(F)F)c2)cc1Nc1cncc(C(N)=O)c1 [ALW-II-49-7] + Cc1nc(NC(=O)N2CCC[C@H]2C(N)=O)sc1-c1ccnc(C(C)(C)C(F)(F)F)c1 [Alpelisib] (partner 2 µM)
In short: as §1

Dasatinib + Pictilisib = compound: Cc1nc(Nc2ncc(C(=O)Nc3c(C)cccc3Cl)s2)cc(N2CCN(CCO)CC2)n1 [Dasatinib] + CS(=O)(=O)N1CCN(Cc2cc3nc(-c4cccc5[nH]ncc45)nc(N4CCOCC4)c3s2)CC1 [Pictilisib] (partner 1 µM)
In short: as §1

Dasatinib + Linsitinib = compound: Cc1nc(Nc2ncc(C(=O)Nc3c(C)cccc3Cl)s2)cc(N2CCN(CCO)CC2)n1 [Dasatinib] + C[C@]1(O)C[C@@H](c2nc(-c3ccc4ccc(-c5ccccc5)nc4c3)c3c(N)nccn32)C1 [Linsitinib] (partner 1 µM)
In short: as §1

| Cell Line | relative viability (XMD13-2 + Lapatinib; first compound 0.05 µM) | relative viability (XMD13-2 + Lapatinib; first compound 0.1581 µM) | relative viability (XMD13-2 + Lapatinib; first compound 0.5 µM) | relative viability (XMD13-2 + Lapatinib; first compound 1.581 µM) | relative viability (XMD13-2 + Lapatinib; first compound 5 µM) | relative viability (ALW-II-49-7 + Alpelisib; first compound 0.08 µM) | relative viability (ALW-II-49-7 + Alpelisib; first compound 0.253 µM) | relative viability (ALW-II-49-7 + Alpelisib; first compound 0.8 µM) | relative viability (ALW-II-49-7 + Alpelisib; first compound 2.53 µM) | relative viability (ALW-II-49-7 + Alpelisib; first compound 8 µM) | relative viability (Dasatinib + Pictilisib; first compound 0.005 µM) | relative viability (Dasatinib + Pictilisib; first compound 0.01581 µM) | relative viability (Dasatinib + Pictilisib; first compound 0.05 µM) | relative viability (Dasatinib + Pictilisib; first compound 0.1581 µM) | relative viability (Dasatinib + Pictilisib; first compound 0.5 µM) | relative viability (Dasatinib + Linsitinib; first compound 0.005 µM) | relative viability (Dasatinib + Linsitinib; first compound 0.01581 µM) | relative viability (Dasatinib + Linsitinib; first compound 0.05 µM) | relative viability (Dasatinib + Linsitinib; first compound 0.1581 µM) | relative viability (Dasatinib + Linsitinib; first compound 0.5 µM) |
| --- | --- | --- | --- | --- | --- | --- | --- | --- | --- | --- | --- | --- | --- | --- | --- | --- | --- | --- | --- | --- |
| HCC-44 | 1.01 | 1.12 | 1.08 | 0.957 | 0.771 | 0.796 | 0.854 | 0.887 | 0.752 | 0.592 | 0.517 | 0.392 | 0.39 | 0.291 | 0.148 | 0.619 | 0.51 | 0.669 | 0.27 | 0.131 |
| HCC-78 | 1.2 | 0.775 | 0.782 | 0.616 | 0.521 | 0.275 | 0.309 | 0.351 | 0.325 | 0.337 | 0.185 | 0.212 | 0.183 | 0.159 | 0.178 | 0.376 | 0.447 | 0.408 | 0.363 | 0.24 |
| HCC-366 | 1.3 | 1.04 | 1.07 | 1.09 | 1.12 | 0.392 | 0.605 | 0.417 | 0.356 | 0.579 | 0.0952 | 0.074 | 0.0543 | 0.0636 | 0.0661 | 0.122 | 0.0525 | 0.067 | 0.0321 | 0.04 |
| HCC-827 | 0.19 | 0.2 | 0.172 | 0.243 | 0.2 | 0.949 | 1.08 | 0.945 | 0.94 | 0.897 | 1.23 | 0.907 | 0.84 | 0.429 | 0.126 | 1.03 | 1.05 | 0.971 | 0.581 | 0.102 |
| HOP-62 | 1.17 | 1.02 | 1.09 | 1.25 | 1.07 | 1.05 | 1.13 | 1.14 | 0.499 | 0.955 | 0.636 | 0.581 | 0.565 | 0.223 | 0.143 | 1.07 | 1.07 | 0.85 | 0.682 | 0.297 |
| IA-LM | 0.812 | 0.869 | 0.751 | 0.682 | 0.47 | 0.768 | 0.523 | 0.653 | 0.321 | 0.112 | 0.416 | 0.312 | 0.378 | 0.276 | 0.257 | 0.787 | 0.732 | 0.65 | 0.712 | 0.475 |
| LC-2-ad | 1.01 | 1.06 | 0.971 | 0.885 | 0.855 | 0.911 | 0.884 | 0.847 | 0.892 | 0.864 | 0.397 | 0.346 | 0.237 | 0.128 | 0.0796 | 0.685 | 0.702 | 0.6 | 0.26 | 0.176 |
| LCLC-97TM1 | 1.19 | 0.693 | 1.23 | 0.75 | 0.825 | 0.245 | 0.245 | 0.296 | 0.195 | 0.269 | 0.206 | 0.206 | 0.192 | 0.18 | 0.12 | 0.17 | 0.203 | 0.2 | 0.163 | 0.129 |
| LCLC-103H | – | – | – | – | – | 0.933 | 0.968 | 0.993 | 1.14 | 0.972 | 0.665 | 0.514 | 0.515 | 0.286 | 0.17 | 1.07 | 0.961 | 0.88 | 0.568 | 0.388 |
| LK-2 | 0.977 | 0.912 | 1.12 | 1.03 | 0.743 | 1.14 | 1.09 | 1.02 | 0.74 | 0.967 | 0.653 | 0.36 | 0.317 | 0.2 | 0.21 | 0.476 | 0.281 | 0.268 | 0.134 | 0.198 |
| LOU-NH91 | 0.809 | 0.758 | 0.725 | 0.713 | 0.746 | 0.648 | 0.72 | 0.729 | 0.388 | 0.797 | 0.497 | 0.492 | 0.401 | 0.439 | 0.341 | 0.961 | 0.847 | 0.715 | 0.549 | 0.412 |
| LU99A | 1.21 | 0.975 | 1.02 | 0.858 | 0.42 | 0.491 | 0.527 | 0.481 | 0.482 | 0.532 | 0.332 | 0.347 | 0.293 | 0.25 | 0.194 | 0.494 | 0.481 | 0.434 | 0.199 | 0.173 |
| LXF-289 | 0.923 | 0.901 | 0.905 | 0.897 | 0.834 | 1.07 | 1.01 | 1.01 | 1.17 | 1.08 | 0.659 | 0.472 | 0.298 | 0.111 | 0.076 | 1 | 0.974 | 0.831 | 0.202 | 0.131 |
| NCI-H23 | 1.33 | 0.964 | 0.996 | 1.09 | 1.27 | 0.692 | 0.803 | 0.613 | 0.726 | 0.985 | 0.335 | 0.26 | 0.376 | 0.28 | 0.181 | 0.483 | 0.38 | 0.505 | 0.315 | 0.213 |
| NCI-H441 | – | – | – | – | – | 0.854 | 0.771 | 0.768 | 0.48 | 0.591 | 0.555 | 0.437 | 0.381 | 0.211 | 0.145 | 0.566 | 0.523 | 0.491 | 0.311 | 0.176 |
| NCI-H1650 | 0.865 | 0.674 | 0.809 | 0.677 | 0.227 | – | – | – | – | – | 0.481 | 0.277 | 0.259 | 0.215 | 0.199 | – | – | – | – | – |
| NCI-H2170 | 0.307 | 0.272 | 0.278 | 0.284 | 0.266 | 0.723 | 0.762 | 0.751 | 0.867 | 0.793 | 0.286 | 0.234 | 0.257 | 0.265 | 0.203 | – | – | – | – | – |
